Assays:
Kunming mice = experiment: Drug-induced loss of righting reflex in mice; assay type: in vivo; settings: 60 mg/kg, single bolus via tail vein
Text: (§1) In anesthetic activity tests, latency generally refers to the period between the start of administration of a drug to a subject and the moment that the subject becomes unconscious. A short latency is desirable, since it represents fast onset of the drug.
(§2) The duration of anesthesia generally refers to the period between the moment that a subject becomes unconscious and the moment that the subject regains consciousness. The durations will be different for different animal models or animal species. An over-long duration of anesthesia may result in adverse suppressive effects on the cardiovascular and respiratory systems, such as side effects on the nervous system, including drowsiness, dizziness, etc.; at the same time, an over-short duration of anesthesia may affect the anesthetic effect, causing dose increase of anesthetic during surgery and other issues.
Kunming mice (male, 18-25 g) were randomly divided into several groups. After administering the drugs in a single bolus via the tail vein, the latency to loss of righting reflex and the duration of loss of righting reflex were recorded.

Rhesus monkeys = experiment: Anesthetic effects in monkeys (loss of consciousness); assay type: in vivo; settings: intravenous single bolus
Text: as §1, §2
Rhesus monkeys (male, 5-6 kg) were randomly divided into several groups. After administering the drugs intravenously in a single bolus, the latency to and the duration of loss of consciousness were recorded.

[1] = tested on: GABA Cl− current, HEK293T cells; experiment: Cellular GABA activation current via whole-cell patch clamp; assay type: cell-based; settings: Homo sapiens, HEK-293T, with 1 μM GABA, holding potential −60 mV; for Emax at 30 µM: concentration 30 μM; for EC50: read-out: EC50 (concentration at half of Emax); for Emax at 10 µM: concentration 10 μM
Experimental: Test compounds were dissolved in external solution (NaCl 140 mM, KCl 4.7 mM, HEPES 10 mM. CaCl2 2 mM, glucose 11 mM, and MgCl2 1 mM, pH 7.4) at various concentrations. HEK293T cells were plated on glass cover slips, and incubated in DMEM medium at 37° C. and 5% CO2 for 24 h.
An HEKA EPC 10 USB patch clamp amplifier was used in the whole-cell recording of GABA Cl^− current. 1 μM GABA was used to excite Cl^− current. Cells were voltage clamped at a holding potential of −60 mV, and treated with the test compounds of different concentrations together with 1 μM of GABA. The Cl^− current induction effect of the test compounds on the same cell, the maximum percentage of current potentiation (Emax), and the concentration of test compounds at half of Emax (EC50) were recorded.

[2] = read-out: Emax (maximum percentage of current potentiation)

| Compound | Latency to loss of righting reflex (Kunming mice) [min] | Latency to loss of consciousness (Rhesus monkeys; 6 mg/kg) [min] | Duration of loss of consciousness (Rhesus monkeys; 8 mg/kg) [min] | Duration of loss of righting reflex (Kunming mice) [min] | EC50 [1] [nM] | also measured |
| --- | --- | --- | --- | --- | --- | --- |
| COC(=O)CC[C@@H]1N=C(c2ccccn2)c2cc(Br)ccc2-n2ccnc21 [Example 2, (S)-methyl 3-(8-bromo-6-(pyridin-2-yl)-4H-benzo[f]imidazo[1,2-a][1,4]diazepin-4-yl)propanoate] | 0.13 | 3.92 | 55.90 | – | – | Duration of loss of consciousness (Rhesus monkeys; 6 mg/kg): 18.10 min; Emax at 30 µM [1, 2]: 358% |
| COC(=O)CC[C@@H]1N=C(c2ccccc2)c2cc(Cl)ccc2-n2cnnc21 [Example 3, (S)-methyl 3-(8-chloro-6-phenyl-4H-benzo[f][1,2,4]triazolo[4,3-a][1,4]diazepin-4-yl)propanoate] | – | – | – | 11.76 | 950 | Emax at 30 µM [1, 2]: 325% |
| COC(=O)CC[C@@H]1N=C(c2ccccn2)c2cc(Br)ccc2-n2c(C)nnc21 [Example 4, (S)-methyl 3-(8-bromo-1-methyl-6-(pyridin-2-yl)-4H-benzo[f][1,2,4]triazolo[4,3-a][1,4]diazepin-4-yl)propanoate] | – | – | 45.00 | 19.14 | 980 | Emax at 30 µM [1, 2]: 472% |
| COC(=O)CC[C@@H]1N=C(c2ccccn2)c2cc(Br)ccc2-n2c(C3CC3)cnc21 [Example 5, (S)-methyl 3-(8-bromo-1-cyclopropyl-6-(pyridin-2-yl)-4H-benzo[f]imidazo[1,2-a][1,4]diazepin-4-yl)propanoate] | – | – | – | 23.33 | 360 | Emax at 10 µM [1, 2]: 160% |
| [2H]Cc1cnc2n1-c1ccc(Br)cc1C(c1ccccn1)=N[C@H]2CCC(=O)OC [Example 6, (S)-methyl 3-(8-bromo-1-deuteromethyl-6-(pyridin-2-yl)-4H-benzo[f]imidazo[1,2-a][1,4]diazepin-4-yl)propanoate] | 0.17 | – | – | 23.95 | – | – |
| COC(=O)CC[C@@H]1N=C(c2ccccn2)c2cc(Br)ccc2-n2cnnc21 [Example 9, (S)-methyl 3-(8-bromo-6-(pyridin-2-yl)-4H-benzo[f][1,2,4]triazolo[4,3-a][1,4]diazepin-4-yl)propanoate] | – | – | 36.47 | 12.88 | 720 | Emax at 10 µM [1, 2]: 408% |
| COCc1cnc2n1-c1ccc(Br)cc1C(c1ccccn1)=N[C@H]2CCC(=O)OC [Example 10, (S)-methyl 3-(8-bromo-1-(methoxymethyl)-6-(pyridin-2-yl)-4H-benzo[f]imidazo[1,2-a][1,4]diazepin-4-yl)propanoate] | – | 4.00 | 26.00 | 17.27 | 470 | Duration of loss of consciousness (Rhesus monkeys; 6 mg/kg): 26.00 min; Emax at 3 µM ([1]; concentration 3 μM, read-out: Emax (maximum percentage of current potentiation)): 197% |
| [2H]Cc1nnc2n1-c1ccc(Br)cc1C(c1ccccn1)=N[C@H]2CCC(=O)OC [Example 11, (S)-methyl 3-(8-bromo-1-deuteromethyl-6-(pyridin-2-yl)-4H-benzo[f][1,2,4]triazolo[4,3-a][1,4]diazepin-4-yl)propanoate] | – | – | – | 12.82 | 400 | Emax at 30 µM [1, 2]: 319% |
| CCc1cnc2n1-c1ccc(Br)cc1C(c1ccccn1)=N[C@H]2CCC(=O)OC [Example 15, (S)-methyl 3-(8-bromo-1-ethyl-6-(pyridin-2-yl)-4H-benzo[f]imidazo[1,2-a][1,4]diazepin-4-yl)propanoate] | 0.24 | 2.75 | – | – | – | Duration of loss of consciousness (Rhesus monkeys; 4 mg/kg): 37.50 min; Latency to loss of consciousness (Rhesus monkeys; 4 mg/kg): 3.75 min; Duration of loss of consciousness (Rhesus monkeys; 6 mg/kg): 49.00 min |
| COC(=O)CC[C@@H]1N=C(c2ccccc2F)c2cc(Cl)ccc2-n2cnnc21 [Example 17, (S)-methyl 3-(8-chloro-6-(2-fluorophenyl)-4H-benzo[f][1,2,4]triazolo[4,3-a][1,4]diazepin-4-yl)propanoate] | – | – | 52.50 | 18.51 | – | – |
| COC(=O)CC[C@@H]1N=C(c2ccccc2F)c2cc(Cl)ccc2-n2c(C3CC3)nnc21 [Example 18, (S)-methyl 3-(8-chloro-1-cyclopropyl-6-(2-fluorophenyl)-4H-benzo[f][1,2,4]triazolo[4,3-a][1,4]diazepin-4-yl)propanoate] | 0.19 | 5.09 | – | 25.61 | 470 | Duration of loss of consciousness (Rhesus monkeys; 1 mg/kg): 41.15 min; Latency to loss of consciousness (Rhesus monkeys; 1 mg/kg): 3.30 min; Latency to loss of consciousness (Rhesus monkeys; 4 mg/kg): 5.10 min; Emax at 10 µM [1, 2]: 347% |
| COC(=O)CC[C@@H]1N=C(c2ccccn2)c2cc(Cl)ccc2-n2c(C3CC3)cnc21 [Example 21, (S)-methyl 3-(8-chloro-1-cyclopropyl-6-(pyridin-2-yl)-4H-benzo[f]imidazo[1,2-a][1,4]diazepin-4-yl)propanoate] | – | – | – | 23.23 | – | – |
| COC(=O)CC[C@@H]1N=C(c2ccccn2)c2cc(Cl)ccc2-n2c(C3CCC3)cnc21 [Example 29, (S)-methyl 3-(8-chloro-1-cyclobutyl-6-(pyridin-2-yl)-4H-benzo[f]imidazo[1,2-a][1,4]diazepin-4-yl)propanoate] | 0.21 | – | – | 19.09 | – | – |
| CCc1nnc2n1-c1ccc(Cl)cc1C(c1ccccn1)=N[C@H]2CCC(=O)OC [Example 30, (S)-methyl 3-(8-chloro-1-ethyl-6-(pyridin-2-yl)-4H-benzo[f][1,2,4]triazolo[4,3-a][1,4]diazepin-4-yl)propanoate] | 0.20 | – | – | 17.74 | – | – |
| COC(=O)CC[C@@H]1N=C(c2ccccn2)c2cc(Cl)ccc2-n2c(C(C)C)nnc21 [Example 31, (S)-methyl 3-(8-chloro-1-isopropyl-6-(pyridin-2-yl)-4H-benzo[f][1,2,4]triazolo[4,3-a][1,4]diazepin-4-yl)propanoate] | 0.16 | – | – | 17.82 | – | – |
| COC(=O)CC[C@@H]1N=C(c2ccccn2)c2cc(Br)ccc2-n2c(C)cnc21 [Remimazolam, reference compound] | 0.28 | 5.50 | – | – | – | Latency to loss of consciousness (Rhesus monkeys; 4 mg/kg): 5.34 min |
